Experimental data published in patent publication US20060035907A1, “Methods of treating abnormal cell growth using c-MET and m-TOR inhibitors” (priority 2004, published 2006).

How the values were obtained:
[1] = system: TPR-MET transformed BaF3 cells; assay: Cell growth of TPR-MET transformed BaF3 cells (MTT assay or trypan blue exclusion); format: cell-based, murine
Description: (§1) Cells. The murine pre-B cell line BaF3 was grown in RPMI 1640 containing 10% fetal calf serum and 10% WEHI-conditioned medium as a source of murine IL-3. BaF3 cell lines transfected with a BCR/ABL, TEUABL, TEUJAK2, or TEUPDGFβR cDNA were grown in the absence of growth factors. A TPR/MET expressing BaF3 cell line was generated by transfection of an expression vector containing the TPR/MET cDNA as previously described (Sattler, M., Pride, Y. B., Ma, P., Gramlich, J. L., Chu, S. C., Quinnan, L. A., Shirazian, S., Liang, C., Podar, K., Christensen, J. G. & Salgia, R. (2003). Cancer Res, 63, 5462-9.). The number of viable cells after treatment with DMSO or PHA665752 was determined using an MTT assay (In Vitro Toxicology Assay Kit, Sigma, St. Louis, Mo.) or trypan blue exclusion.
(§2) Referring to FIG. 1, BaF3 cells lines transformed by tyrosine kinase oncogenes were used to determine cell growth (A-C) or transwell migration (D) in response to the small molecule c-MET kinase inhibitor PHA665752. A: The relative growth of BaF3 cells transformed by TPR-MET in response to different concentrations of PHA665752 was determined after 18 h (n=3). B: TPR-MET transformed BaF3 cells were either left untreated (♦) or treated (▴) with PHA665752 (1 μM) for the indicated time in the presence or absence of IL-3 (n=3). C: BaF3 cells transformed by tyrosine kinase oncogenes were treated for 18 h with PHA665752 (1 μM) (n=3). D: Cells were treated for 18 hr with the indicated dose of PHA665752 and the spontaneous transwell migration relative to DMSO-treated cells determined (n=4).
Referring to FIG. 5, the relative growth of BaF3 cells transformed by TPR-MET in response to different concentrations of rapamycin (0.01 nM to 10 nM) was determined in the presence (▴) or absence (▪) of PHA665752 (0.5 μM) after a 3 day culture (n=3).

[2] = system: BCR-ABL transformed BaF3 cells; assay: Cell growth of BCR-ABL transformed BaF3 cells; format: cell-based, murine
Description: as §1
as §2, with “B: TPR-MET transformed BaF3 cells were either left untreated (♦) or treated (▴) with PHA665752 (1 μM) for the indicated time in the presence or absence of IL-3 (n=3). C: BaF3 cells transformed by tyrosine kinase oncogenes were treated for 18 h with PHA665752 (1 μM) (n=3).” left out

[3] = system: TEL-JAK2 transformed BaF3 cells; assay: Cell growth of TEL-JAK2 transformed BaF3 cells; format: cell-based, murine; conditions: 0.2 μM, 18 hours, FIG. 1C
Description: as §1
as §2, with “B: TPR-MET transformed BaF3 cells were either left untreated (♦) or treated (▴) with PHA665752 (1 μM) for the indicated time in the presence or absence of IL-3 (n=3). C: BaF3 cells transformed by tyrosine kinase oncogenes were treated for 18 h with PHA665752 (1 μM) (n=3).” left out

[4] = system: TEL-ABL transformed BaF3 cells; assay: Cell growth of TEL-ABL transformed BaF3 cells; format: cell-based, murine; conditions: 0.2 μM, 18 hours, FIG. 1C
Description: as §1
as §2, with “B: TPR-MET transformed BaF3 cells were either left untreated (♦) or treated (▴) with PHA665752 (1 μM) for the indicated time in the presence or absence of IL-3 (n=3). C: BaF3 cells transformed by tyrosine kinase oncogenes were treated for 18 h with PHA665752 (1 μM) (n=3).” left out

[5] = system: TEL-PDGFFBR transformed BaF3 cells; assay: Cell growth of TEL-PDGFFBR transformed BaF3 cells; format: cell-based, murine; conditions: 0.2 μM, 18 hours, FIG. 1C
Description: as §1
as §2, with “B: TPR-MET transformed BaF3 cells were either left untreated (♦) or treated (▴) with PHA665752 (1 μM) for the indicated time in the presence or absence of IL-3 (n=3). C: BaF3 cells transformed by tyrosine kinase oncogenes were treated for 18 h with PHA665752 (1 μM) (n=3).” left out

parental BaF3 cells = assay: Cell growth of IL-3 stimulated parental BaF3 cells; format: cell-based, murine; conditions: 0.2 μM, 72 hour culture (data not shown)
BaF3.TPR-MET cells = assay: Transwell migration assay; format: cell-based, murine; conditions: Mus musculus, compared to DMSO treated cells, n=4, read-out: inhibition of the cell migration
Description: as §2

[6] = system: TPR-MET transformed BaF3 cells; assay: Apoptosis assay, Annexin V / propidiumiodide staining by FACS; format: cell-based, murine; conditions: 0.2 µM, 18 h
Description: (§3) Apoptosis assays. The activity of caspase-3-was measured in cell lysates (CaspACE Assay System, Promega) and Annexin V positive staining was determined by FACS analysis (Annexin-V-Fluos Staining Kit, Roche Diagnostics) according to the manufacturer's directions in cells that were either treated with PHA665752 or the solvent DMSO.
(§4) Referring to FIG. 2, TPR-MET transformed BaF3 cells were treated for 18 h with either DMSO or the indicated amount of PHA665752 (n=3). A: Annexin V and propidiumiodide staining was determined by flow cytometry. B: Activity of caspase-3 was determined in cell lysate (n=3). C: The percentage of cells in different cell cycle phases was determined by flow cytometry after propidiumiodide staining (n =3).

caspase-3 = assay: Caspase-3 activity in cell lysates; format: cell-based, murine; conditions: compared to DMSO treated cells, 18 h, n=3, p<0.03
Description: as §3, §4

[7] = system: TPR-MET transformed BaF3 cells; assay: Cell cycle analysis (propidiumiodide, FACS); format: cell-based, murine; conditions: 18 h
Description: Cell cycle analysis. Fixed cells were stained with propidiumiodide and cell cycle parameters analyzed by FACS analysis.
as §4

[8] = system: tyrosine phosphorylation of cellular proteins in BaF3.TPR-MET cells; assay: Immunoblotting, tyrosine phosphorylation of cellular proteins in BaF3.TPR-MET cells; format: cell-based, murine; conditions: anti-phosphotyrosine antibody (4G10), FIG. 4A
Description: (§5) Immunoblotting. Proteins were extracted from whole cells by lysing them in a Tris buffer (50 mM, pH 8.0) containing NaCl (150 mM), NP40 (1%, v/v), deoxycholic acid (0.5%, w/v), sodium dodecylsulfate (0.1%, w/v), NaF (1 mM), Na3VO4 (1 mM) and glycerol (10%, v/v) (Sigma, St. Louis, Mo.) supplemented with a protease inhibitor cocktail (complete, Roche, Indianapolis, Ind.). Polyclonal antibodies against p70-S6K (Biosource International, Camarillo, Calif.), total c-MET (C-12, Santa Cruz, Santa Cruz, Calif.), phosphatidylinositol-3′-kinase (Upstate Biotechnology, Lake Placid, N.Y.) and phosphorylated AKT[Ser473] or p70-S6K[Thr421/Ser424] (Cell Signaling, Beverly, Mass.), phospho-MET[Tyr1230/1234/1235] (Biosource International, Camarillo, Calif.) as well as phosphotyrosine (4G10, Upstate Biotechnology, Lake Placid, N.Y.) were used for immunoblotting.
(§6) Referring to FIG. 4, phosphorylation of cellular proteins was determined by immunoblotting in whole cell lysate as indicated using anti-phosphotyrosine antibody (4G10) (A), total c-MET antibody, anti-pY1230/1234/1235-MET antibody (recognizing the corresponding pY361/365/366 sites in TPR-MET), anti-pY1349-MET (recognizing the pY480 site in TPR-MET) and anti-pY1365-MET (recognizing the pY496 site in TPR-MET) phospho-antobodies (B), and phospho-AKT and phospho-S6K antibodies (C). […]

[9] = system: tyrosine phosphorylation of cellular proteins in BCR-ABL transformed BaF3 cells; assay: Immunoblotting, tyrosine phosphorylation of cellular proteins in BCR-ABL transformed BaF3 cells; format: cell-based, murine; conditions: BCR-ABL transformed BaF3 cells (data not shown)
Description: as §5

TPR-MET = target: T1, TPR-MET (Homo sapiens, UniProt P08581); assay: Immunoblotting, TPR-MET autophosphorylation with phosphospecific antibodies; format: cell-based; conditions: TPR-MET transformed BaF3 cells, FIG. 4B
T1 construct: TPR portion (fusion partner, nucleoprotein TPR; human entry would be P12270); expressed in transfected cells; host or cells: BaF3 (murine pre-B cell line); the other entry of the earlier key: TPR (P12270, Nucleoprotein TPR)
T1 sequence (P08581 with tags, fused parts or gaps): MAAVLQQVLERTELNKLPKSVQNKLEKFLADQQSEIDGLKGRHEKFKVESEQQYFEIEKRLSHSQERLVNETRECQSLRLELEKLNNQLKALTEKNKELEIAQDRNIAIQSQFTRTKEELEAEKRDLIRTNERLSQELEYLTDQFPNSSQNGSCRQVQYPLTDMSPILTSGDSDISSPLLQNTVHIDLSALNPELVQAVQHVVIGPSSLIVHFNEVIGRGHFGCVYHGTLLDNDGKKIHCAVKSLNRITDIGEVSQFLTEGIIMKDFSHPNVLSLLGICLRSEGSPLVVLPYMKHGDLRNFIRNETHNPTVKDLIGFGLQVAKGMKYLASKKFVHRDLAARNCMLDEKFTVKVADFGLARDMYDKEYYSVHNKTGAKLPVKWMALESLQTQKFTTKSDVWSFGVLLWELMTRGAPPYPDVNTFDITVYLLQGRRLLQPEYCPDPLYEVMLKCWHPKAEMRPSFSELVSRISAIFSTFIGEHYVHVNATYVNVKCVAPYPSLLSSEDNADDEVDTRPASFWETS
Description: as §5, §6

AKT[Ser473] = assay: Immunoblotting, phospho-AKT[Ser473] in TPR-MET transformed BaF3 cells; format: cell-based, murine; conditions: FIG. 4C
Description: as §5, §6

p70-S6K[Thr421/Ser424] = assay: Immunoblotting, phospho-p70-S6K[Thr421/Ser424] in TPR-MET transformed BaF3 cells; format: cell-based, murine; conditions: FIG. 4C
Description: as §5, §6

`Cc1[nH]c(/C=C2\C(=O)Nc3ccc(S(=O)(=O)Cc4c(Cl)cccc4Cl)cc32)c(C)c1C(=O)N1CCC[C@@H]1CN1CCCC1` [PHA665752, (3Z)-5-[(2,6-dichlorobenzyl)sulfonyl]-3-[(3,5-dimethyl-4-{[(2R)-2-(pyrrolidin-1-ylmethyl)pyrrolidin-1-yl]carbonyl}-1H-pyrrol-2-yl)methylene]-1,3-dihydro-2H-indol-2-one] was tested, and the “effect on cell growth in the absence of IL-3” value ([1]; BaF3.TPR-MET, absence of IL-3, 72 hour culture, PHA665752 (1 μM) per FIG. 1B legend) was “completely blocked cell growth”, the IC50 ([1]; Mus musculus, BaF3.TPR-MET cells, after 18 h, FIG. 1A, read-out: IC50, inhibition of cell growth) was under 60 nM and the “effect on cell growth in the presence of IL-3” value ([1]; TPR-MET transformed cells, presence of IL-3, 72 hour culture, PHA665752 (1 μM) per FIG. 1B legend) was “only little effect on cell growth”. For the same molecule, the “inhibition of cell growth” value ([2]; 0.2 μM, 18 hours, BCR-ABL transformed BaF3 cells, FIG. 1C) was “did not inhibit cell growth”, the “effect on cell growth in the presence of IL-3” value ([2]; BCR-ABL transformed cells, control experiment, presence of IL-3, 72 hour culture, FIG. 1B) was “only little effect on cell growth” and the “inhibition of cell growth” value [3] was “did not inhibit cell growth”. The “inhibition of cell growth” value [4] was “did not inhibit cell growth”, the “inhibition of cell growth” value [5] was “did not inhibit cell growth” and the growth inhibitory effect (parental BaF3 cells) was “did not observe a significant growth inhibitory effect”. The inhibition at 0.2 µM (BaF3.TPR-MET cells) was 92.5 ± 3%, the “cells in early apoptosis (Annexin V positive)” value [6] was 13.9±1.0% and the “cells in late apoptosis (Annexin V plus propidiumiodide positive)” value [6] was 19.2±1.8%. For the same molecule, the “number of apoptotic cells (of total population)” value ([6]; control cells 5%) was 33.1%, the “increase in caspase-3 activity” value (caspase-3) was 3.5±0.7 fold and the “percentage of cells in G2/M-phase” value ([7]; 0.2 μM, DMSO 12.2%) was 5.5%. For the same molecule, the “percentage of cells in G1-phase” value ([7]; 0.2 μM, DMSO 42.4%) was 77.0%, the “percentage of cells in S-phase” value ([7]; 0.2 μM, DMSO 45.4%) was 17.5% and the “cells in sub-G1-phase” value ([7]; consistent with apoptotic cells) was “increase of cells in sub-G1-phase”. For the same molecule, the “tyrosine phosphorylation of cellular proteins” value [8] was “reduced tyrosine phosphorylation of cellular proteins in a dose dependent manner”, the “tyrosine phosphorylation of cellular proteins” value [9] was “did not alter tyrosine phosphorylation of cellular proteins” and the “autophosphorylation in the catalytic tyrosine kinase domain at Tyr361/365/366, Tyr480 and Tyr496” value (TPR-MET) was “inhibits autophosphorylation”. For the same molecule, the “serine phosphorylation of AKT[Ser473]” value (AKT[Ser473]) was “reduced serine phosphorylation” and the “phosphorylation of the mTOR substrate p70-S6K[Thr421/Ser424]” value (p70-S6K[Thr421/Ser424]) was “reduced phosphorylation”.
